This passage reports melting point results from a melting point compilation (Tetko et al.; mined from patent text by program, amines drawn as free bases though some values may be those of a salt).

Structures are written as SMILES.

In general, melting point refers to the temperature, or range, at which the solid turns liquid. In turn, `COc1ccc(C=O)cc1-c1nsc2ccc(-n3c(=O)cc(C(F)(F)F)n(C)c3=O)cc12` gave a melting point of 118 to 120 °C.
`Cc1cc(-c2n[nH]c(=O)c(O)c2O)ccc1O` showed a melting point of 265 to 267 °C.
The figure for `Cc1ccc2c(=O)cc(CS(C)=O)oc2c1C` (configuration not stated) is 205 to 209 °C.
On to `O=C(O)CN1C(=O)COc2cc(F)c([N+](=O)[O-])cc21`, for which the melting point was in the range of 177 to 183 °C.
`COc1cc(N2CCC(N(C)C)C2)ccc1Nc1ncc2ccc(-c3ccccc3OC)n2n1` (configuration not stated) showed a melting point of 70 to 78 °C.
As to `COc1cc(F)ccc1C(O)C1CCCCn2c1nc(-c1ccncn1)cc2=O` (racemic), the melting point was 235 to 237 °C.
With `COc1cccc(N)c1C(=O)NC1CCN(C(C)CC(C(=O)N(C)C)(c2ccccc2)c2ccccc2)CC1O` (configuration not stated), the melting point came to 175 °C.
With `CCOC(=O)C1=C(C)NC(C)=C(C(=O)OCC)C1c1ccccc1/C=C/C(=O)OC1CCCCCC1` the figure was 192 to 194 °C; with `CCC1CCC(c2ccc(-c3cc(F)c(C(F)(F)Oc4cc(F)c(C(F)(F)F)c(F)c4)c(F)c3)c(F)c2)OC1` (configuration not stated), 90 °C; with `Nc1c2c(nn1-c1ccc(Cl)cc1)CCCC2`, 140 to 142 °C.
The figure for `CC(C)(C)OC(=O)NCCOC(=O)COc1ccc(CCCCNC(N)=NC(=O)c2nc(Cl)c(N)nc2N)cc1` is 80 to 82 °C; for `CCCNc1nc(=O)n(C2CC(N=[N+]=[N-])C(CO)O2)cc1C` (configuration not stated) it is 59 to 62 °C; for `CN1CCP(=O)(c2ccccc2)CC1` it is 115 to 116 °C.
With `O=C(NC(Cc1ccc(OCc2ccccc2)cc1)C(=O)O)c1cn2cc(-c3ccc(Cl)cc3)ccc2n1` (configuration not stated) the figure was 270 to 271 °C; with `CCc1nc(/C=C/c2cn(-c3ccccc3)nc2OCc2ccc(OCc3nc(-c4ccc(CC(=O)O)cc4)oc3C)c(OC)c2)co1`, 117 to 119 °C.
For the molecule `Cc1c(NC(=O)c2ccc(-c3ccc(F)cc3)cc2)ccc2cc(CN3CCCC3CC(C)C)cnc12` (configuration not stated), the melting point is 193 to 196 °C.
In the case of `O=C1N(Cc2ncccc2C(F)(F)F)c2cccnc2C12COc1cc3c(cc12)OCCO3` (configuration not stated), the melting point was above 250 °C.
Regarding `CC(O)=C(C#N)C(=O)Nc1ccc(Cl)cc1Cl`, the melting point lay in the range of 143 to 144 °C.
For the molecule `CCOC(=O)Cc1cccc2c(-c3ccc(N(C)C)cc3)nccc12`, the melting point was in the range of 132 to 135 °C.
For `Cc1ccc(NC(=O)CCCC2CCCCC2)cc1NC(=O)c1ccc(O)cc1`, the melting point lay within 159 to 160 °C.
As for `O=C(O)c1ccccc1Sc1cccc(OCc2ccc3cc(Cl)ccc3n2)c1`, the melting point was 177 to 179 °C.
On to `OCC1OC(c2ccc(Cl)c(Cc3ccc(-c4ccc(F)nc4)s3)c2)C(O)C(O)C1O` (configuration not stated), for which the melting point was 131 to 134 °C.
In turn, `C=CCNC(=O)N(O)Cc1c(C)n(C(=O)c2ccc(Cl)cc2)c2ccc(OC)cc12` showed a melting point of 148 to 149 °C.
In the case of `O=C1CC(c2ccccc2)NC(=O)C1C(=O)c1ccccc1[N+](=O)[O-]` (configuration not stated), the melting point was in the range of 146 to 150 °C.
The molecule `O=C(O)c1cc(Cn2cc(C3c4ccccc4C=Cc4ccccc43)c(=S)[nH]c2=O)ccc1Cc1ccccc1` displayed a melting point of 135 °C.
As to `CC(C(=O)O)c1ccc(N(C)c2nccs2)cc1` (configuration not stated), the melting point lay in the range of 121 to 123 °C.
`O=C(O)C1CC(O)CN1C(=O)c1ccc2c(c1)OCCO2` (configuration not stated) showed a melting point of 142 °C.
Turning to `CC(C)c1nc2c([nH]1)C(=O)N1CCN=C1N2Cc1ccccc1Cl`, the melting point fell in the range of 250 to 255 °C.
`CCOC(=O)c1sc(C)c2nc(OCC)n(Cc3ccc(-c4ccccc4C#N)cc3)c12` displayed a melting point of 153 to 155 °C.
As for `CCCCCCCCOc1ccc(CC(=O)[C@H]2CC[C@H](CCCCC)CC2)c(F)c1F`, the melting point worked out at 59 °C.
The figure for `CC(=NC(C#N)=C(N)C#N)c1ccc2ccccc2c1` is 188 to 189 °C.
`C[C@H](CC(=O)c1ccc(C#N)cc1)C(=O)N1CCC(OCC(=O)OC(C)(C)C)CC1` yielded a melting point of 142 °C.
With `CC(=O)OCC1OC(SCCCc2ccccc2)C(OC(C)=O)C(OC(C)=O)C1OC(C)=O` (configuration not stated) the figure was 73 to 74 °C; with `O=C1CC(c2cccc(Cl)c2)c2cc(C(c3ccc(Cl)cc3)n3ccnc3)cc3c2N1CCC3` (configuration not stated), 93.6 °C; with `CC(=O)NC[C@H]1CN(c2ccc(N3CCC(n4nnnc4N)CC3)c(F)c2)C(=O)O1`, 174 to 176 °C.
In turn, `O=C1CCC(c2ccc(NC(=O)C3CC3)cc2)=NN1` came in with a melting point of 272 to 273 °C.
`CCCCC(CC)C(=O)Nc1ccc2c(c1)c(Cc1ccc(C(=O)NS(=O)(=O)c3ccccc3)cc1OC)cn2C` (configuration not stated) came in with a melting point of 169 to 171 °C.
`Cc1cc(C)n(-c2nccc(Nc3cccc(C(F)(F)F)c3)n2)n1` returned a melting point of 98.5 to 99.6 °C.
As for `O=c1ccn(-c2cccc(C(F)(F)F)c2)nc1-c1ccsc1-c1ccccc1`, the melting point was 167 to 168 °C.
For the molecule `CCCCCCCCNC(=O)Nc1nc2nc(NCCCN3CCN(C)CC3)ncc2cc1-c1c(Cl)cccc1Cl`, the melting point was in the range of 54.5 to 57.5 °C.
Molecule `O=c1[nH]c2ccccc2cc1-c1nnn[nH]1` had a melting point of 301 to 303 °C.
`CC(CN1C(=O)c2ccccc2C1=O)c1c[nH]c2ccc(C#N)cc12` (configuration not stated): the melting point was 218 to 220 °C.
`O=Cc1cc(O)c(O)c(C=O)c1` displayed a melting point of 192 to 195 °C.
`CCOC(=O)c1oc(-c2ccccc2)cc(=O)c1Br`: the melting point was determined as 135 °C.
For the molecule `CSc1ccc(-c2coc3ccc(-c4nnc([C@H](C)O)o4)cc23)cc1`, the melting point lay within 164 to 165 °C.
As for `COC(=O)COc1ccc(CC2SC(=O)N(C(c3ccccc3)(c3ccccc3)c3ccccc3)C2=O)cc1` (configuration not stated), the melting point fell in the range of 158 to 162 °C.
With `CCCc1nc(C(O)C(C)C)c(C(N)=O)n1Cc1ccc(-c2ccccc2-c2nnn[nH]2)cc1` (configuration not stated), the melting point lay within 153 to 157 °C.
The molecule `COc1ccccc1-c1c(N)c2ccc(Cl)cc2[nH]c1=O` registered a melting point of 284 to 286 °C.
The molecule `NS(=O)(=O)c1cccc2c1CSC2` showed a melting point of 146 to 148 °C.
In turn, `CC(C)(C)C(NC(=O)c1ccccc1)NC(=S)Nc1cccnc1` (configuration not stated) displayed a melting point of 193 to 194 °C.
`Cc1cc(S(=O)(=O)N2c3ccccc3-c3ccc(F)cc3C2C)ccc1O` (configuration not stated): the melting point was 196 °C.
`C=CCOc1ccc(C(=O)C=Cc2c(OC)cccc2OC)cc1` came in with a melting point of 102 to 103 °C.
With `Cc1cccc(NC(=O)NCC(=O)N(CC(=O)OC(C)(C)C)c2ccccc2F)c1` the figure was 148 °C; with `O=C1c2ccccc2C(=O)N1CC1CCOC1` (configuration not stated), 114 to 118 °C.
Molecule `CC(C)N(CCCN1C(=O)C(=O)c2ccccc21)C(C)C` had a melting point of 49 to 50 °C.
With `COC(C)(C)C(Cl)=NO` the figure was 95 °C; with `CC(=O)Oc1ccc(-c2c(CBr)c3ccc(OC(C)=O)cc3oc2=O)c(OC(C)=O)c1`, 171 to 172 °C.
Molecule `CCCc1nc2c(N)nc3cc(OCCOCc4ccccc4)ccc3c2s1` returned a melting point of 142 to 145 °C.
In turn, `Cc1ccc(C=COc2cccc3c2C(=O)c2ccccc2C3=O)cc1` showed a melting point of 88 to 90 °C.
The figure for `CCCc1ccc(OCCCc2cc3c(cc2O)CCO3)cc1` is 101 to 102 °C.
The molecule `CC1(S(C)(=O)=O)C(I)=C(S(C)(=O)=O)C=CC1C(=O)O` (configuration not stated) gave a melting point of 66 to 67 °C.
For the molecule `CCOC(=O)c1nn(-c2ccccc2Br)c(=O)c2c(N)scc12`, the melting point is 203 to 205 °C.
The molecule `CC(C)(C)NCC(O)COc1ccc(-c2csnn2)cc1` (configuration not stated) registered a melting point of 124 to 125 °C.
In turn, `CCCCCCCNC(=O)N(C)c1ncc(-c2ccc(C[C@H](OCC)C(=O)O)cc2)s1` gave a melting point of 97 °C.
The figure for `Cc1ccc(C2(O)c3c(C)c(NC(=O)CC(C)(C)C)c(C)c(C)c3OC2(C)C)cc1` (configuration not stated) is 146 to 148 °C; for `CCc1nc2c(-c3ccc(Cl)cc3Cl)nnc(C)c2n1C(CC)CC` it is 63 to 64 °C.
Molecule `CCN1C(=O)NCC1c1ccc(OC)c(OC2CC3CCC2C3)c1` (configuration not stated) had a melting point of 149 to 153 °C.
Take `COC(=O)C1=C(c2ccc(OC)cc2)C(c2ccc(OC)cc2)OC1=O` (configuration not stated): the melting point lay in the range of 107 to 109 °C.
The molecule `CCCc1cc2nc(=O)[nH]n2c(C)n1` yielded a melting point of 173 °C.
In turn, `COc1ccc(C2=NN(c3ccccc3)C(c3ccc([N+](=O)[O-])cc3)C2)cc1` (configuration not stated) came in with a melting point of 168 to 173 °C.
With `COC(=O)c1cc(F)ccc1Nc1ccnc2c(C(F)(F)F)cccc12`, the melting point came out at 166 °C.
On to `O=C1CC2(CCCC2)CC(=O)N1CCCCN1CCN(c2nsc3ccccc23)CC1`, for which the melting point was 128 to 130 °C.
`Cc1cc(N(C)N)nnc1-c1ccc(C#N)cc1`: the melting point is 149 to 152 °C.
The figure for `COCC1(CC(=O)O)OCC(=O)c2c1[nH]c1ccccc21` (configuration not stated) is 135 to 140 °C; for `COc1ccc(CN2C(=O)C[C@H]2[C@@H]2COC(C)(C)O2)c(OC)c1` it is 85 to 86 °C; for `COC(=O)C1=C(C)NC(C)=C(C(=O)OC)C1c1ccccc1COC(C)=O` it is 149 to 151 °C.
For the molecule `CC(O)Cc1c(O)c2cccnc2n(-c2ccc(Cl)c(Cl)c2)c1=O` (configuration not stated), the melting point was 232 to 234 °C.
`CC(=O)Nc1cc(C)c(OC(C)=O)cc1C` showed a melting point of 177 °C.
`NC(=O)Cc1nc(-c2ccc(Cl)cc2)sc1-c1ccccc1` showed a melting point of 202 to 203 °C.
`Cc1ccc2c(c1)Oc1sc(C)cc1C(=O)N2` registered a melting point of 211 to 215 °C.
The figure for `c1ccc(COc2ccc(C3CO3)nc2)cc1` (configuration not stated) is 45 to 47.5 °C; for `Nc1nc(-c2cc(Cl)ccc2Cl)nc(N2CCCCC2)n1` it is 192 to 194 °C; for `COC(=O)c1c(C(C)C)nc(C(C)C)c(CN2CCC(N3CCCCC3)CC2)c1-c1ccc(F)cc1` it is 59 to 61 °C.
Take `CCCCCCCCOc1cc(-n2c(=O)cc(C(F)(F)F)n(C)c2=O)c(F)cc1Cl`: the melting point was in the range of 60 to 63 °C.
With `CCOC(=O)c1cc2c3n(ccc-2n1)CC(C(C)C)=N3`, the melting point lay in the range of 207 to 209 °C.
The molecule `CC1(C)Cc2ccccc2C(c2cnc3ccccc3c2)N1` (configuration not stated) registered a melting point of 117 to 122 °C.
`FC(F)(F)Oc1ccc2nc(-c3ccc(Cl)cc3)[nH]c2c1`: the melting point was 190 to 192 °C.
